We go through two compounds from paper PMC8060220, “Comparative study of hyperpure chlorine dioxide with two other irrigants regarding the viability of periodontal ligament stem cells” (Clinical Oral Investigations, 2020).

Marks after values point to notes of the source that are not given here.

The subject of series [1] is STRO-1. The series can be described thus: Immunocytochemistry of stem cell marker STRO-1. In kind it is cell-based, human. The note with it: 48 h, 0.02% CHX, 0.0025% (1/1) ClO2. On the procedure:
(§1) PDLSC cultures grown in 8 chamber slides (Nunc Lab-Tek) were treated with the antiseptic agents similar to the viability studies. After 48 h, treated and untreated cell cultures were fixed in 4% PFA in PBS for 20 min at room temperature (RT). To block non-specific binding, 5% goat serum in PBS was applied for 1 h at RT. Then cell cultures were incubated with the primary antibodies diluted 1:100 with 2.5% goat serum in PBS overnight at 4 °C. The applied primary antibodies were the following: anti-STRO-1 antibody (type mouse IgM)—a generous gift from Prof. Richard Oreffo (University of Southampton, UK); anti-CD90 (Thy-1; type mouse IgG) and the anti-CD105 (endoglin; type mouse IgM) antibodies purchased from Calbiochem and Santa Cruz Biotechnology, respectively. Goat anti-mouse IgM and IgG type secondary antibodies conjugated with Alexa Fluor 488 (Molecular Probes) were diluted with 2.5% goat serum in PBS in 1:2000 and 1:1000 respectively. The incubation time was 60 min at RT. Finally, the walls of the chambers were removed and the slides were mounted with ProLong Gold antifade reagent with DAPI (Molecular Probes). Immunocytochemically labeled cell cultures were investigated under a fluorescence microscope (Nikon Eclipse E600), the photos were taken by a Retiga 2000R digital CCD camera (QImaging), and analyzed by the Image Pro software (Media Cybernetics). Free macros for automated fluorescence analysis of image processing software FIJI/ImageJ were applied to evaluate immunostaining of stem cell markers. Each test point represents 3 × 3 reading of the samples.

Series [2] deals with PDLSCs. The series can be described thus: Impedimetry (xCELLigence), concentration-response study. Format: cell-based, human. The note with it: 48-h incubation, 0.5 normalized CI. On the procedure:
(§2) To evaluate the concentration-dependent effects of the 3 antiseptic agents (H2O2, CHX, and ClO2), 9 different dilutions of each agent were prepared with growth medium (from 3.91 × 10^−6 to 10^−3 M, by 1:2 dilution in each step). As ClO2 is photosensitive and volatile, its dilution series were made in dark Eppendorf tubes which were opened only for the inevitably required time. After a 48-h-long incubation, cell viability was assessed by WST-1 test and impedimetric measurement, respectively (see below). The […] (IC50) values corresponding to the 50% viable cells or 0.5 normalized CI were determined from the concentration-effect curves in the case of the two methods, respectively.
The effect of irrigative agents on the viability of the PDLSC cells was assessed using the xCELLigence SP System (Roche Applied Science, Indianapolis, IN, USA), which monitors the cellular events by measuring electrical impedance across interdigitating gold microelectrodes integrated on the bottom of tissue culture plates (E-plates). The detected impedance is influenced by the viability and morphology of the attached cells on the surface of the electrodes. The presence of cells due to their insulating plasma membranes constrain the electrical current and lead to an increase in the electrode impedance. The impedance depends on the number of the attached cells and on the dimensional change of the attached cells on the electrodes. More cells attached to the electrode or spreading cause a larger increase in the impedance. The change in impedances represented as “cell index” (CI) which is a relative and dimensionless value. Briefly, the experimental protocol was as follows: to register the background value, 100 μL of culture medium was added to each well and impedance was recorded for 1 h to gain constant background curves of impedance. […] The viability of the PDLSC was monitored for 96 h. Normalized impedance to the control calculated by the integrated software (RTCA 1.2—Roche Applied Science, Indianapolis, IN, USA) was used for the statistical evaluation. […]

Series [3] deals with PDLSC cultures. The series can be described thus: Morphological study, phase-contrast microscopy. In kind it is cell-based, human. The note with it: for cell morphology and cell number under phase-contrast microscope: 48 h after treatment, 0.3% H2O2, 0.02% CHX, 0.0025% or 0.00025% ClO2. The text has this: Cellular morphology was observed under an inverted phase-contrast microscope (Nikon TMS). Photomicrographs were taken applying a high-performance CCD camera (COHU) and the Scion image software.

Series [4] has as its system CD90. The series can be described thus: Immunocytochemistry of stem cell marker CD90. In kind it is cell-based, human. The note with it: 48 h, 0.02% CHX, 0.0025% (1/1) ClO2. On the procedure: as §1
Series [5] concerns PDLSCs. The series can be described thus: WST-1 test, concentration-response study. The note with it: 48-h incubation, 50% viable cells. In kind it is cell-based, human. On the procedure:
as §2
(§3) This assay is dedicated to measuring the viability of PDLSCs. In 96-well culture plates, 10,000 PDLSCs were seeded. After 24 h, samples were treated with the irrigative compounds, and final concentrations were H2O2 0.3%, CHX 0.02%, and ClO2 0.0025% and 0.00025% solutions in 4-4 parallel wells. After 10 min, all the irrigative agents were removed and the samples were washed three times with normal growth medium, simulating the diluting effect of saliva in the oral cavity during the periodontal treatments. Forty-eight hours after the treatments, the cell viability was measured by the cell proliferation reagent containing water-soluble tetrazolium salt, WST-1 [2-(4-Iodophenyl)-3-(4-nitrophenyl)-5-(2,4-disulfophenyl)-2H-tetrazolium] (Roche). This assay determines mitochondrial dehydrogenase enzyme activity resulting water-soluble cleavage product. The WST-1 reagent was used at 1:20 dilution and incubation time was 2 h at 37 °C. Absorbance was measured at 450 nm with a reference wavelength of 655 nm by a microplate reader (BIO-RAD Model 3550). Background control values were determined in wells seeded with no cells. Each value represents the average of minimum 3 parallel measurements.
(In general: Tetrazolium assays rely on reduction of a dye to a coloured formazan, in cell work by metabolically active cells.)

Series [6] has as its system CD105. The series can be described thus: Immunocytochemistry of stem cell marker CD105. In kind it is cell-based, human. The note with it: 48 h, 0.02% CHX, 0.0025% (1/1) ClO2. On the procedure:
as §1

Series [7] relates to PDLSCs. The series can be described thus: Impedimetry (xCELLigence), 10 min treatment, time course and viability. In kind it is cell-based, human. The note with it: for long-term (2–120 h) effect on normalized CI / short-term (0–2 h) effect on normalized CI / viability of PDLSC cultures, impedimetry: 0.3% H2O2, 0.02% CHX; for long-term (2–120 h) effect on normalized CI / short-term (0–2 h) effect on normalized CI: 0.0025% and 0.00025% ClO2, 10 min treatment; for viability of PDLSC cultures, impedimetry: P3 and P7, 48 h. On the procedure: The effect of irrigative agents on the viability of the PDLSC cells was assessed using the xCELLigence SP System (Roche Applied Science, Indianapolis, IN, USA), which monitors the cellular events by measuring electrical impedance across interdigitating gold microelectrodes integrated on the bottom of tissue culture plates (E-plates). The detected impedance is influenced by the viability and morphology of the attached cells on the surface of the electrodes. The presence of cells due to their insulating plasma membranes constrain the electrical current and lead to an increase in the electrode impedance. The impedance depends on the number of the attached cells and on the dimensional change of the attached cells on the electrodes. More cells attached to the electrode or spreading cause a larger increase in the impedance. The change in impedances represented as “cell index” (CI) which is a relative and dimensionless value. Briefly, the experimental protocol was as follows: to register the background value, 100 μL of culture medium was added to each well and impedance was recorded for 1 h to gain constant background curves of impedance. In the following step, PDLSCs were seeded in 10^5 cells/mL density. After 24-h incubation, they were treated with the solutions of the investigated irrigative compounds (H2O2, CHX, and ClO2) for 10 min and the medium served as reference. […] Normalized impedance to the control calculated by the integrated software (RTCA 1.2—Roche Applied Science, Indianapolis, IN, USA) was used for the statistical evaluation. Each data point represents the mathematical average of three parallels.

The subject of series [8] is gingival fibroblasts. Set-up: method as in PMID 1920010. The note with it: exposure of dental root surfaces to CHX (0.12%); cited from earlier work.
In series [9] the test system is gingival fibroblasts. Set-up: method as in PMID 10632519. The note with it: cited from earlier work.
Series [10] concerns PDL cells. Set-up: method as in PMID 1507037. The note with it: 0.2 to 2.0% CHX pretreatment of the root surface; cited from earlier work.
Series [11] has as its system PDLSCs. The series can be described thus: WST-1 viability assay, 10 min treatment. In kind it is cell-based, human. The note with it: P3 and P7; 48 h; 0.3% H2O2, 0.02% CHX, higher ClO2 concentration (0.0025%). On the procedure:
as §3

Series [12] relates to equine fibroblasts. The note with it: cited from earlier work.
The conditions of series [13]: long incubation time; cited from earlier work.

Usually IC50 stands for the concentration that gives 50% inhibition. High values mean a need for much substance, low ones inhibition by little substance. As to `[H]/N=C(\N/C(=N/[H])NCCCCCCNC(=N)NC(=N)Nc1ccc(Cl)cc1)Nc1ccc(Cl)cc1` [CHX, chlorhexidine], the entries for the “STRO-1 Fluo. int. [%] Control = 100%” value in [1] (P3) and in [1] (P7) were 130.52* % and 86.02%, respectively. The IC50 in [2] (Homo sapiens, 48 h) was 36.4 µM; in [5], 16.6 µM; in [5] (Homo sapiens, 48 h) it was 29.5 µM. Besides, in series [3], the “cell morphology and cell number under phase-contrast microscope” value is “number of cells dramatically decreased”. The “CD90 Fluo. int. [%] Control = 100%” value in [4] (P3) is 199.23*** %; in series [4] (P7), 30.98*** %. The entries for the “CD105 Fluo. int. [%] Control = 100%” value in series [6] (P3) and in series [6] (P7) were 218.18*** % and 104.81%, respectively. In series [7], the “long-term (2–120 h) effect on normalized CI” value is listed as “retained their short-term cytotoxic effects”. Moreover, the “short-term (0–2 h) effect on normalized CI” value in series [7] was “rapid decrease of normalized CI profile”. Also, the “repopulation in long-term impedimetric analysis” value in [7] (5-day-long period after treatment) was “no sign of repopulation”. Also, the “viability of PDLSC cultures, impedimetry” value in series [7] is recorded as “significantly deteriorating effects”. The “cells killed in 5 min” value in series [7] (impedimetric results, 0.02% CHX) was 50%. Further, the “cells killed during the first 30 min” value in series [7] (impedimetric results, 0.02% CHX, ClO2 depending on the concentration applied (0.0025%, 0.00025%)) is given as “about 70%”. Further, the “subsequent attachment of gingival fibroblasts” value in series [8] is listed as “significantly inhibited”. Further, the “low concentration shown to be toxic, reducing production of collagen and non-collagen proteins” value in series [9] is on record as 0.0001%. Besides, the “attachment of PDL cells onto the root surface and their morphology” value in series [10] was “adversely altered”. The “viability of PDLSC cultures, WST-1” value in series [11] is on record as “significantly deteriorating effects”. For the same compound, in [12], the “concentration with 50% of survival” value is listed as 0.005%.

In series [2], `OO` [H2O2, hydrogen peroxide] gave an IC50 of 327 µM. Also, in series [3] (48 h after treatment with H2O2), the “state of cultures at fixation for immunocytochemistry” value is “all the cells were dead and detached from the slide”. In [3], the “cell morphology and cell number under phase-contrast microscope” value is “number of cells dramatically decreased”. This compound yielded an IC50 in [5] of 209 µM. Moreover, in series [7], the “long-term (2–120 h) effect on normalized CI” value was “retained their short-term cytotoxic effects”; the “short-term (0–2 h) effect on normalized CI” value is “rapid decrease of normalized CI profile”; the “viability of PDLSC cultures, impedimetry” value is recorded as “complete lack of any viable cells”. The “time to kill all the cells” value in [7] (impedimetric results, 0.3% H2O2) was ≤ 1 min. In series [11], the “viability of PDLSC cultures, WST-1” value is “complete lack of any viable cells”. In series [13], the “concentrations at which in vitro sporicide effects are evident” value was 10–30%.
